Assay [1] in a line: DRUGMATRIX: ATPase, Na+/K+ enzyme inhibition (substrate: ATP). As to conditions: Not Active = under 50% inhibition at 10 µM. The class given is tissue-based, Sus scrofa, Heart.
For assay [2], the target named is T1, Vasoactive intestinal polypeptide receptor 1 (Homo sapiens, UniProt P32241). Further: in other assays of this panel Not Active means under 50% inhibition at 10 µM.
T1 sequence (P32241 whole entry): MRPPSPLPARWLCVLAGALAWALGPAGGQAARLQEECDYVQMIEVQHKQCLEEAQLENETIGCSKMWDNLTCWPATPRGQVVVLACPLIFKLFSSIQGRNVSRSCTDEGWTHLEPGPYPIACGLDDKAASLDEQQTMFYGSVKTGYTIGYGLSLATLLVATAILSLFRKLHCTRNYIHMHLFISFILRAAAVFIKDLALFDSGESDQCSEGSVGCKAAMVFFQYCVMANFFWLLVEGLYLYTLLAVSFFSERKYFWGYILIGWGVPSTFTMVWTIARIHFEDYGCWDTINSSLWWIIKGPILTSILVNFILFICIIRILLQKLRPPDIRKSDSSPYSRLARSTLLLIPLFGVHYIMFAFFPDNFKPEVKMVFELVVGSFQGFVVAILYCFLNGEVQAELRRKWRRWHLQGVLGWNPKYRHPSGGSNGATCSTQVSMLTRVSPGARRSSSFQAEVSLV
The class given is cell membranes, Membrane. To be noted: ht-29.

The nature of assay [3]: DRUGMATRIX: Glutamate, Kainate radioligand binding (ligand: [3H] Kainic acid). The class given is cell membranes, Rattus norvegicus, Wistar, Brain, Membrane. To be noted: Not Active = under 50% inhibition at 10 µM.
Assay [4] in a line: DRUGMATRIX: Tumor Necrosis Factor (TNF), Non-Selective radioligand binding (ligand: [125I] TNF-alpha). The class given is cell membranes, Membrane. As to conditions: u-937; Not Active = under 50% inhibition at 10 µM.
The target in assay [5] is Aldo-keto reductase family 1 member B1 (Rattus norvegicus, UniProt P07943). Kind of assay: biochemical. The class given is tissue-based, Lens of camera-type eye.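 Further: inhibition of aldose reductase enzyme activity, measured with DL-glyceraldehyde as the substrate; in other assays of this panel Not Active means under 50% inhibition at 10 µM.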
Assay [6] addresses T2, Alpha-1D adrenergic receptor (Homo sapiens, UniProt P25100).
T2 sequence (P25100 whole entry): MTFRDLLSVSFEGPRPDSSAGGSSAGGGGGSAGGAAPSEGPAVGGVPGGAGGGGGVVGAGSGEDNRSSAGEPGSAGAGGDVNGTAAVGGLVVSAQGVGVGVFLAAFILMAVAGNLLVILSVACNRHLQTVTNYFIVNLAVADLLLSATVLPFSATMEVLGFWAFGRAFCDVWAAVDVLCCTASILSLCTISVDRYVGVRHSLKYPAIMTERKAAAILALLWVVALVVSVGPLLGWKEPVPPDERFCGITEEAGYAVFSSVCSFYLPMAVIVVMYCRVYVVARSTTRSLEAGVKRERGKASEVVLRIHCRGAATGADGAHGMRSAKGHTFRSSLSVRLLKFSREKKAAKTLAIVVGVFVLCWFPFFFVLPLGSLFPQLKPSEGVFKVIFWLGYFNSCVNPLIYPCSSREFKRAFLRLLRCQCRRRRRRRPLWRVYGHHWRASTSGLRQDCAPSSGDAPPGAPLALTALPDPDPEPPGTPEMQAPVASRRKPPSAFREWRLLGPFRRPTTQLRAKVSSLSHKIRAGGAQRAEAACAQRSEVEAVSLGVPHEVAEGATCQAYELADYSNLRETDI
In kind it is cell membranes, HEK293, Membrane.

A short description of assay [7]: DRUGMATRIX: Calcium Channel Type L, Dihydropyridine radioligand binding (ligand: [3H] Nitrendipine). In kind it is cell membranes, Rattus norvegicus, Wistar, Cerebral cortex, Membrane. To be noted: Not Active = under 50% inhibition at 10 µM.

SMILES strings stand for the structures.

`CC1(C)O[C@@H]2C[C@H]3[C@@H]4C[C@H](F)C5=CC(=O)C=C[C@]5(C)[C@H]4[C@@H](O)C[C@]3(C)[C@]2(C(=O)CO)O1` [FLUNISOLIDE]: the IC50 entry in assay [1], in assay [2], in assay [3], in assay [4], in assay [5] and in assay [6] (hek293) was “Not Active” in each case. Moreover, the concentration for half-maximal inhibition (IC50) entry in assay [7] is on record as “Not Active”. In addition, the inhibitory constant (Ki) result in assay [1], in assay [3], in assay [4] and in assay [7] was “Not Active” in each case.
Regarding `CC1(C)O[C@@H]2C[C@H]3[C@@H]4C[C@H](F)C5=CC(=O)C=C[C@]5(C)[C@@]4(F)[C@@H](O)C[C@]3(C)[C@]2(C(=O)CO)O1` [FLUOCINOLONE ACETONIDE], the IC50 entry in assay [1], in assay [2], in assay [3], in assay [4], in assay [5] and in assay [6] (hek293) was “Not Active” throughout. In addition, the IC50 entry in assay [7] is “Not Active”. Also, the inhibition constant Ki result in assay [1], in assay [3], in assay [4] and in assay [7] was “Not Active” each time.
Turning to `CC1(C)O[C@@H]2C[C@H]3[C@@H]4C[C@H](F)C5=CC(=O)CC[C@]5(C)[C@H]4[C@@H](O)C[C@]3(C)[C@]2(C(=O)CO)O1` [FLURANDRENOLIDE], the IC50 result in assay [1], in assay [2], in assay [3], in assay [4], in assay [5] and in assay [6] (hek293) was “Not Active” each time. Further, in assay [7], the IC50 result was “Not Active”. Also, the Ki entry in assay [1], in assay [3], in assay [4] and in assay [7] was “Not Active” each time.
Turning to `CN(C)c1ccc(C(=C2C=CC(=[N+](C)C)C=C2)c2ccc(N(C)C)cc2)cc1.[Cl-]` [GENTIAN VIOLET], the IC50 entry in assay [1] is “Not Active”; in assay [2], “Not Active”; in assay [3], “Not Active”; in assay [4], “Not Active”; in assay [5], “Not Active”; in assay [6] (read-out: IC50), 1.98 µM. Moreover, the concentration for half-maximal inhibition (IC50) in assay [7] (read-out: IC50) was 2.13 µM. In addition, the Ki result in assay [1] was “Not Active”; in assay [3] it was “Not Active”; in assay [4], “Not Active”; in assay [6] (read-out: Ki), 0.973 µM; in assay [7] (read-out: Ki) it was 1.37 µM.
Take `Cc1ccc(S(=O)(=O)NC(=O)NN2CC3CCCC3C2)cc1` (stereo unspecified) [GLICLAZIDE]: the IC50 result in assay [1], in assay [2], in assay [3], in assay [4], in assay [5] and in assay [6] (hek293) was “Not Active” in each case. In addition, the half-inhibitory concentration (IC50) result in assay [7] is given as “Not Active”. In addition, the Ki entry in assay [1], in assay [3], in assay [4] and in assay [7] was “Not Active” in each case.
In the case of `NC(=O)NO` [HYDROXYUREA], the IC50 entry in assay [1], in assay [2], in assay [3], in assay [4], in assay [5] and in assay [6] (hek293) was “Not Active” each time. Further, the IC50 result in assay [7] is “Not Active”. Also, the Ki entry in assay [1], in assay [3], in assay [4] and in assay [7] was “Not Active” in each case.
As to `CC(C)Cc1ccc(C(C)C(=O)O)cc1` (stereo unspecified) [IBUPROFEN], the 50% inhibitory concentration (IC50) entry in assay [1], in assay [2], in assay [3], in assay [4], in assay [5] and in assay [6] (hek293) was “Not Active” in each case. The IC50 entry in assay [7] was “Not Active”. Moreover, the Ki result in assay [1], in assay [3], in assay [4] and in assay [7] was “Not Active” throughout.
As to `COc1ccc2c(c1)c(CC(=O)O)c(C)n2C(=O)c1ccc(Cl)cc1` [INDOMETHACIN], the IC50 result in assay [1] was “Not Active”; in assay [2] it was “Not Active”; in assay [3] it was “Not Active”; in assay [4], “Not Active”; in assay [5] (read-out: IC50) it was 3.63 µM; in assay [6] (hek293), “Not Active”. In assay [7], the half-maximal inhibitory concentration (IC50) result was “Not Active”. The Ki entry in assay [1], in assay [3], in assay [4] and in assay [7] was “Not Active” throughout.
`CCc1c2c(nc3ccc(OC(=O)N4CCC(N5CCCCC5)CC4)cc13)-c1cc3c(c(=O)n1C2)COC(=O)[C@]3(O)CC` [IRINOTECAN]: the IC50 result in assay [1], in assay [2], in assay [3], in assay [4], in assay [5] and in assay [6] (hek293) was “Not Active” throughout. Moreover, the half-maximal inhibitory concentration (IC50) result in assay [7] is “Not Active”. Besides, the inhibition constant (Ki) result in assay [1], in assay [3], in assay [4] and in assay [7] was “Not Active” each time.
In the case of `CC(C(=O)O)c1cccc(C(=O)c2ccccc2)c1` (stereo unspecified) [KETOPROFEN], the IC50 result in assay [1], in assay [2], in assay [3], in assay [4], in assay [5] and in assay [6] (hek293) was “Not Active” each time. Further, the 50% inhibitory concentration (IC50) entry in assay [7] is listed as “Not Active”. The Ki result in assay [1], in assay [3], in assay [4] and in assay [7] was “Not Active” each time.
With `Nc1ccn([C@@H]2CS[C@H](CO)O2)c(=O)n1` [LAMIVUDINE], the IC50 entry in assay [1], in assay [2], in assay [3], in assay [4], in assay [5] and in assay [6] (hek293) was “Not Active” each time. In assay [7], the half-maximal inhibitory concentration (IC50) entry is on record as “Not Active”. The Ki result in assay [1], in assay [3], in assay [4] and in assay [7] was “Not Active” each time.
As for `O=S(=O)([O-])CCS.[Na+]` [MESNA], the IC50 entry in assay [1], in assay [2], in assay [3], in assay [4], in assay [5] and in assay [6] (hek293) was “Not Active” throughout. In assay [7], the IC50 result is “Not Active”. Also, the Ki entry in assay [1], in assay [3], in assay [4] and in assay [7] was “Not Active” in each case.
Take `C#C[C@]1(O)CC[C@H]2[C@@H]3CCc4cc(OC)ccc4[C@H]3CC[C@@]21C` [MESTRANOL]: the IC50 entry in assay [1], in assay [2], in assay [3], in assay [4], in assay [5] and in assay [6] (hek293) was “Not Active” each time. In addition, the IC50 entry in assay [7] is recorded as “Not Active”. The Ki result in assay [1], in assay [3], in assay [4] and in assay [7] was “Not Active” throughout.
Consider `CC(=O)Nc1cccc(O)c1` [METACETAMOL], for which the IC50 result in assay [1], in assay [2], in assay [3], in assay [4], in assay [5] and in assay [6] (hek293) was “Not Active” throughout. For the same molecule, the IC50 result in assay [7] is reported as “Not Active”. For the same molecule, the Ki entry in assay [1], in assay [3], in assay [4] and in assay [7] was “Not Active” in each case.
Turning to `Cc1ncc([N+](=O)[O-])n1CCO` [METRONIDAZOLE], the half-maximal inhibitory concentration (IC50) result in assay [1], in assay [2], in assay [3], in assay [4], in assay [5] and in assay [6] (hek293) was “Not Active” in each case. Also, the IC50 result in assay [7] was “Not Active”. Also, the Ki result in assay [1], in assay [3], in assay [4] and in assay [7] was “Not Active” throughout.

What is called IC50 is the concentration that gives 50% inhibition. A word on the Ki: it is a measure of affinity in units of concentration, obtained from inhibition or displacement.

For the origin of these results see ChEMBL document CHEMBL1909046, “DrugMatrix in vitro pharmacology data”.
